Like-named read-outs stand apart in the source and are kept apart here. Values belong to the molecule of their own block, whether it stands above or below them.
How the values were obtained:
FCA induced hyperalgesia = test: Freund complete adjuvant (FCA) induced hyperalgesia model; type: in vivo; details: po; post-treatment time 3 hours; read-out: reversal of the hyperalgesia ED50
Method: At doses of about 4 to about 40 mg/kg p.o., the agents of the invention show reversal of Freund complete adjuvant (FCA) induced hyperalgesia [cf. J. Donnerer et al., Neuroscience 49, 693-698 (1992) and C. J. Woolf, Neuroscience 62, 327-331 (1994)].
(§1) Preferred compounds for the above mentioned indications include (3-{2-[2-trans-(3,5-dichlorophenyl)-vinyl]-6-methyl-pyridin-3-yloxy}-propyl)-dimethylamine (A), 2-methyl-6-styryl-pyridine (B), 2-(3-fluoro-phenylethynyl)-6-methyl-pyridine (C) and 2-(4-ethoxy-3-trifluoromethyl-phenylethynyl)-6-methyl-pyridine (D).

[1] = tested on: electroshock induced convulsion; test: electroshock induced convulsion model; type: in vivo; details: ip, read-out: anticonvulsive activity ED50
Method: At doses of about 10 to 100 mg/kg i.p. or p.o. with pretreatment times of 15 min. to 8 hours, the agents of the invention show anticonvulsive activity in the electroshock induced convulsion model [cf. E. A. Swinyard, J. Pharm. Assoc. Scient. Ed. 38, 201 (1949) and J. Pharmacol. Exptl. Therap. 106, 319 (1952)].
as §1

melting point: 26 to 28 °C
SMILES: Cc1cccc(C#Cc2cccc(F)c2)n1 [C, 2-(3-fluoro-phenylethynyl)-6-methyl-pyridine]
ED50 (FCA induced hyperalgesia): 4.2 mg/kg

SMILES: Cc1cccc(C=Cc2ccccc2)n1 [B, 2-methyl-6-styryl-pyridine]
ED50 ([1]; pretreatment time 15 min.): 35 mg/kg

SMILES: Cc1ccc(OCCCN(C)C)c(/C=C/c2cc(Cl)cc(Cl)c2)n1 [A, (3-{2-[2-trans-(3,5-dichlorophenyl)-vinyl]-6-methyl-pyridin-3-yloxy}-propyl)-dimethylamine]
ED50 ([1]; pretreatment time 4 hours): 30 mg/kg

SMILES: CCOc1ccc(C#Cc2cccc(C)n2)cc1C(F)(F)F [D, 2-(4-ethoxy-3-trifluoromethyl-phenylethynyl)-6-methyl-pyridine]
ED50 (FCA induced hyperalgesia): 19 mg/kg

Source: patent US6656957B1, “Pyridine derivatives” (Novartis AG, priority 1998, dated 2003)
